The values below come from article PMC4266452, “Prediction of Thorough QT study results using action potential simulations based on ion channel screens” (Journal of Pharmacological and Toxicological Methods, 2014).

One data set concerns the target T1, Kv4.3/KChIP2.2 (Homo sapiens, UniProt Q9UK17).
T1 sequence (Q9UK17 1-655): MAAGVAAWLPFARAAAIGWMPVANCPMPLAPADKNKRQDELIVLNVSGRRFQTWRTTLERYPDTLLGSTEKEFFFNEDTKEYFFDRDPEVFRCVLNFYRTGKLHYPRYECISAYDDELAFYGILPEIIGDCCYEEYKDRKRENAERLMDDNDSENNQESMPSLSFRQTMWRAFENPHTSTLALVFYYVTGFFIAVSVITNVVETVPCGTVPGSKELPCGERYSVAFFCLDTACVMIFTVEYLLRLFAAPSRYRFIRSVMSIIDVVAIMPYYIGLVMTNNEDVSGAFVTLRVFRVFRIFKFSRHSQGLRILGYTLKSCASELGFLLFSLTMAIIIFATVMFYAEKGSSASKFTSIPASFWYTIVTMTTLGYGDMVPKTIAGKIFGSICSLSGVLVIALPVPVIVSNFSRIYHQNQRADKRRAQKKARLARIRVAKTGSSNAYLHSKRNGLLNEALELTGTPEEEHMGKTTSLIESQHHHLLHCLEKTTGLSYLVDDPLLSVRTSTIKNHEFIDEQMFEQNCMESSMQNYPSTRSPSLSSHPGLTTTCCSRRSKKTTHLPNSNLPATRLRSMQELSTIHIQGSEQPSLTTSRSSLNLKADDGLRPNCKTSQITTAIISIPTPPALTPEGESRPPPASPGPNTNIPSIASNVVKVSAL
T1 sequence (Q9NS61 1-270 partner): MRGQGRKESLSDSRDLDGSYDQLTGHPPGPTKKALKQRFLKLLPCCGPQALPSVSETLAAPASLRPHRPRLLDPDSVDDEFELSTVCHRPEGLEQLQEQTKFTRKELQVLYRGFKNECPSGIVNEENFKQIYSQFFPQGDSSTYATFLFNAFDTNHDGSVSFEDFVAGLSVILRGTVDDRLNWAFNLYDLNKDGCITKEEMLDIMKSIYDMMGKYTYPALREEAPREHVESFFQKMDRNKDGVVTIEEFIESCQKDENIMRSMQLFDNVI
As to the kind of experiment: IonWorks Quattro Kv4.3/KChIP2.2 screen (AstraZeneca, Q). It is filed as cell-based.

Data set [1] in a line: Plasma concentration (Cmax) during the TQT study, total and calculated free. It is filed as in vivo, human. To be noted: for Cmax TOTAL: calculated from ng/mL and molecular weight.
Data set [2] concerns the target T2, hERG (Homo sapiens, UniProt Q12809).
In data set [3] the target is T2, hERG. To be noted: cited from earlier work.
In data set [4] the test system is QT interval on the body surface ECG. The note with it: cited from earlier work.
For data set [5] the following is noted: ref Gintant (2011), cited from earlier work.
The target of data set [6] is T2, hERG. As to the kind of experiment: IonWorks Quattro hERG screen (AstraZeneca, Q).
The target in data set [7] is T3, KCNQ1/MinK (Homo sapiens, UniProt P51787).
The conditions of data set [8]: ref Gintant (2011); cited from earlier work.
In data set [9] the target is T4, CaV1.2 (Homo sapiens, UniProt Q13936). As to the kind of experiment: IonWorks Barracuda CaV1.2 screen (GSK, B).
For data set [10], the target named is T4, CaV1.2. The data set can be described thus: IonWorks Quattro CaV1.2 screen (AstraZeneca, Q).
For data set [11], the target named is T5, NaV1.5 (Homo sapiens, UniProt Q14524). As to the kind of experiment: IonWorks Quattro NaV1.5 screen (AstraZeneca, Q).
Data set [12] deals with T5, NaV1.5. The data set can be described thus: Second IonWorks Quattro NaV1.5 screen (GSK, Q2).
For data set [13], the target named is T2, hERG. The data set can be described thus: in vitro.
In data set [14] the target is T2, hERG. As to the kind of experiment: cell-based.
For data set [15], the target named is T3, KCNQ1/MinK. As to the kind of experiment: IonWorks Quattro KCNQ1/MinK screen (AstraZeneca, Q). The note with it: −log10 of IC50 in Molar, Hill n = 1, 0.0 = pIC50 ≤ 0 fitted.
[16] abbreviates: IonWorks Quattro, −log10 of IC50 in Molar, Hill n = 1, 0.0 = pIC50 ≤ 0 fitted.
Where [17] appears, read: Cmax high, calculated with PPB and molecular weight.
[18] abbreviates: Cmax low, calculated with PPB and molecular weight.

Like-named read-outs stand apart in the source and are kept apart here.

For the compound `CN(C)CC(c1ccc(O)cc1)C1(O)CCCCC1` (stereo not shown) [Desvenlafaxine], on Kv4.3/KChIP2.2 (setting [16]), the “Kv4.3 pIC50 (Q)” value turned out to be 2.3. The Free plasma concentration in data set [1] (Cmax high) was 3902 nM; in data set [1] (Cmax low), 1251 nM. Also, the “Cmax FREE” value was 1027.67 ng/mL in data set [1] (Cmax high, calculated with PPB); 3901.84 nM in data set [1] (setting [17]); 329.47 ng/mL in data set [1] (Cmax low, calculated with PPB); 1250.93 nM in [1] (setting [18]). For the same compound, the “Cmax TOTAL” value in [1] (Cmax low) is reported as 1784.49 nM; in data set [5] (Cmax high) it was 1466.00 ng/mL; in data set [5] (Cmax low), 470.00 ng/mL. At hERG [2], the “hERG pIC50 (B)” value was at most 0.0. Also, the “hERG pIC50 (M)” value at hERG [3] is given as 3.6. Further, the “QT shortening in the TQT study” value in [4] (range over the three drugs, ref Gintant (2011)) was 2 to 7 ms. Further, the “relationship between exposure and QTc in words (COMMENTS)” value (shortened to “relationship between exposure and QTc”) in data set [4] (ref Gintant (2011)) is “Desvenlafaxine; no clear relationship between exposure and QTc”. Further, on hERG [6], 20000 µM corresponded to half-maximal inhibition (IC50).

Take `CNCC[C@H](Oc1cccc2ccccc12)c1cccs1` [Duloxetine]: the “Kv4.3 pIC50 (Q)” value on Kv4.3/KChIP2.2 is on record as 4.0. The “Cmax TOTAL” value in [1] (Cmax high) is 1008.69 nM; in [5] (Cmax high), 300 ng/mL. For the same compound, the “Cmax FREE” value in data set [1] (Cmax high, calculated with PPB) is given as 30 ng/mL; in data set [1] (setting [17]) it was 100.869 nM. Besides, the “KCNQ1 pIC50 (Q)” value at KCNQ1/MinK [7] worked out at 5.0. Also, the “PPB (percent plasma binding)” value in [8] was 90%. On CaV1.2 [9], the “CaV1.2 pIC50 (B)” value stood at 4.6. In addition, the “CaV1.2 pIC50 (Q)” value on CaV1.2 [10] was 4.0. In addition, the “NaV1.5 pIC50 (Q)” value at NaV1.5 [11] came to 5.1. Further, the “NaV1.5 pIC50 (Q2)” value on NaV1.5 [12] turned out to be 4.8.

Take `COC[C@@H](NC(C)=O)C(=O)NCc1ccccc1` [Lacosamide]: the Free plasma concentration in [1] (Cmax high) was 79618.4 nM; in data set [1] (Cmax low), 41311.4 nM. Moreover, the “Cmax FREE” value is reported as 19928 ng/mL in [1] (Cmax high, calculated with PPB); 79618.4 nM in data set [1] (setting [17]); 10340 ng/mL in data set [1] (Cmax low, calculated with PPB); 41311.4 nM in data set [1] (setting [18]). Besides, the “KCNQ1 pIC50 (Q)” value at KCNQ1/MinK [7] is recorded as 3.6. In data set [8], the “PPB (percent plasma binding)” value is reported as 6% PPB. In addition, on CaV1.2 [10] (IonWorks Quattro, −log10 of IC50 in Molar, Hill n = 1, […]), the “CaV1.2 pIC50 (Q)” value was 4.3.

Turning to `CCCc1nc(C)c2c(=O)nc(-c3cc(S(=O)(=O)N4CCN(CC)CC4)ccc3OCC)[nH]n12` [Vardenafil], on Kv4.3/KChIP2.2 (setting [16]), the “Kv4.3 pIC50 (Q)” value turned out to be […]. In addition, the “Cmax TOTAL” value in [1] (Cmax high) is listed as 183.043 nM; in [1] (Cmax low), 15.248 nM; in data set [5] (Cmax high), 106.000 ng/mL; in data set [5] (Cmax low), 8.830 ng/mL. Besides, the “Cmax FREE” value was 5.300 ng/mL in [1] (Cmax high, calculated with PPB); 9.152 nM in [1] (setting [17]); 0.442 ng/mL in data set [1] (Cmax low, calculated with PPB); 0.762 nM in data set [1] (setting [18]). At hERG [13], this compound had a half-maximal inhibitory concentration (IC50) of […]. In addition, the “hERG pIC50 (M)” value at hERG [3] was […]. In data set [8], the “PPB (percent plasma binding)” value is reported as 95% PPB.

As to `OC(CNCC(O)C1CCc2cc(F)ccc2O1)C1CCc2cc(F)ccc2O1` (stereo not shown) [Nebivolol], the “Kv4.3 pIC50 (Q)” value at Kv4.3/KChIP2.2 (setting [16]) is 4.3. For the same compound, the Free plasma concentration in data set [1] (Cmax high) was 0.9396 nM. For the same compound, the “Cmax TOTAL” value in data set [1] (Cmax high) is 46.979 nM; in [5] (Cmax high) it was 20.760 ng/mL. Further, the “Cmax FREE” value is recorded as 0.415 ng/mL in [1] (Cmax high, calculated with PPB) and 0.940 nM in data set [1] (setting [17]). This compound showed an IC50 on hERG [13] of 6.31 µM. For the same compound, in data set [4] (TQT study, highest dose, ref Gintant (2011)), the “QTc change (QTcF)” value was 0.68 ms. The “relationship between exposure and QTc” value in data set [4] (ref Gintant (2011)) is reported as “No relationship between plasma conc.and QTcF”. For the same compound, the “mean Cmax” value in [5] (supratherapeutic / highest dose of the TQT study) is given as 20.76 ng/mL. Further, in data set [8], the “PPB (percent plasma binding)” value is recorded as 98% PPB. For the same compound, on hERG [6] (human, CHO K1 cells stably transfected with human ERG), the IC50 at 3 min was 6.31 µM. At NaV1.5 [11], the “NaV1.5 pIC50 (Q)” value came out at 5.2. The “NaV1.5 pIC50 (Q2)” value on NaV1.5 [12] is 5.1.

`Cc1c(O)cccc1C(=O)N[C@@H](CSc1ccccc1)[C@H](O)CN1C[C@H]2CCCC[C@H]2C[C@H]1C(=O)NC(C)(C)C` [Nelfinavir]: the “Kv4.3 pIC50 (Q)” value at Kv4.3/KChIP2.2 (setting [16]) worked out at 2.3. The Free plasma concentration is 80.63 nM in [1] (Cmax high) and 61.4 nM in [1] (Cmax low). Besides, the “Cmax TOTAL” value in data set [1] (Cmax high) is given as 19197.2 nM; in data set [1] (Cmax low), 14618.1 nM; in data set [5] (Cmax high) it was 10900 ng/mL; in data set [5] (Cmax low), 8300 ng/mL. Further, the “Cmax FREE” value in data set [1] (Cmax high, calculated with PPB) is 45.78 ng/mL; in data set [1] (setting [17]) it was 80.6284 nM; in [1] (Cmax low, calculated with PPB), 34.86 ng/mL; in data set [1] (setting [18]), 61.3959 nM. The “hERG pIC50 (M)” value on hERG [3] is reported as 4.9. Moreover, the “upper 90% confidence limit of QTc change” value in data set [4] (at every time point, ref Damle et al., J Clin Pharm. (49):291-300. 2009) is on record as “a) upper 90% confidence limit below 10 msec at every”. For the same compound, the “TQT study outcome in words (COMMENTS)” value in data set [4] (ref Gintant (2011)) is “Damle et al concludes negative TQT study since”. Also, the “relationship between exposure and QTc” value in [4] (ref Gintant (2011)) was “time point and b) PK-PD model slopes were negative”. On hERG [6], this compound gave an IC50 of 31600 µM.

Consider `CC1=NN(c2ccc(C)c(C)c2)C(=O)/C1=N\Nc1cccc(-c2cccc(C(=O)O)c2)c1O` [Eltrombopag], for which the “Kv4.3 pIC50 (Q)” value on Kv4.3/KChIP2.2 (setting [16]) is recorded as 2.8. Further, the “Cmax FREE” value in data set [1] (Cmax high, calculated with PPB) is listed as 76 ng/mL; in data set [1] (setting [17]), 171.764 nM; in data set [1] (Cmax low, calculated with PPB), 25.6 ng/mL; in [1] (setting [18]), 57.8574 nM. Besides, the IC50 against hERG [14] was 1580 µM. In addition, the “Cmax TOTAL” value in data set [5] (Cmax high) is 19000.0 ng/mL; in [5] (Cmax low), 6400.0 ng/mL. In [8], the “PPB (percent plasma binding)” value is given as 99.6% PPB.

For the compound `CS(=O)(=O)CCNCc1ccc(-c2ccc3ncnc(Nc4ccc(OCc5cccc(F)c5)c(Cl)c4)c3c2)o1` [Lapatinib], the Free plasma concentration in data set [1] (Cmax high) is 55.12 nM; in [1] (Cmax low) it was 23.9 nM. Besides, the “Cmax TOTAL” value in data set [1] (Cmax high) was 5512.340 nM; in [1] (Cmax low), 2390.459 nM; in [5] (Cmax high) it was 3203.000 ng/mL; in [5] (Cmax low), 1389.000 ng/mL. In addition, the “Cmax FREE” value is listed as 32.030 ng/mL in data set [1] (Cmax high, calculated with PPB); 55.123 nM in [1] (setting [17]); 13.890 ng/mL in data set [1] (Cmax low, calculated with PPB); 23.905 nM in data set [1] (setting [18]). In addition, the “CaV1.2 pIC50 (B)” value at CaV1.2 [9] was found to be 1.8. Also, the “CaV1.2 pIC50 (Q)” value on CaV1.2 [10] is recorded as 2.7. On NaV1.5 [11] (setting [16]), the “NaV1.5 pIC50 (Q)” value turned out to be 2.5. In addition, the “KCNQ1 pIC50 (Q)” value on KCNQ1/MinK [15] was determined as 3.6.
